Four compounds from patent publication US10231907B2, “Compositions for improving the health and appearance of skin” (Algenist Holdings, Inc., priority 2006, dated 2019) can be followed below.

One assay has as its system Fibroblasts. The assay is described as follows: Procollagen synthesis (type I C-peptide ELISA) in fibroblast culture. The class given is cell-based, human. The note with it: 4 mM, 48 hours, mean ± SD. The text has this:
A fibroblast cell culture model was used to assess the ability of the polysaccharide from Porphyridium to exert an effect on procollagen synthesis. Fibroblasts are the main source of the extracelluar matrix peptides, including the structural protein collagen. Procollagen is a large peptide synthesized by fibroblasts in the dermal layer of the skin and is the precursor for collagen. As the peptide is processed to form a mature collagen protein, the propeptide portion is cleaved off (type I C-peptide). Both the mature collagen protein and the type I C-peptide fragment are then released into the extracellular environment. As collagen is synthesized the type I C-peptide fragment accumulates into the tissue culture medium. Since there is a 1:1 stoichiometric ratio between the two parts of the procollagen peptide, assaying for type I C-peptide reflects the amount of collagen synthesized. […]
A series of type I C-peptide standards was prepared ranging from 0 ng/ml to 640 ng/ml. […] After the incubation 100 μl of stop solution (1 N sulfuric acid) was added to each well and the plate was read using a microplate reader at 450 nm.
To quantify the amount of procollagen present, a standard curve was generated using known concentrations of procollagen. […] Absorbance values for the test and positive control samples was used to determine the amount of procollagen present. […]

In assay [1] the test system is Porphyridium sp. and Porphyridium cruentum. The assay is described as follows: Antibiotic sensitivity on agar plates. The class given is cell-based. The note with it: 14 days. As for the experimental part:
Approximately […] cells (300 ul of 1.5×10^5 cells per ml) of Porphyridium sp. and Porphyridium cruentum cultures in liquid ATCC 1495 ASW media were plated onto ATCC 1495 ASW agar plates (1.5% agar). The plates contained varying amounts of zeocin, sulfometuron, hygromycin and spectinomycin. The plates were put under constant artificial fluorescent light of approximately 480 lux. After 14 days, plates were checked for growth.

The subject of assay [2] is MatTek EpiDerm® skin model (normal human-derived epidermal keratinocytes). The assay is described as follows: TT dimer-UV exposure assay in MatTek EpiDerm skin model. The class given is cell-based. The note with it: 1 mM, UVB 300 mJ/cm^2, mean ± SD. As for the experimental part: TT dimer-UV exposure assay: The testing system used for this assay was the MatTek EpiDerm®, a skin model that consists of normal human-derived epidermal keratinocytes cultured to form a multilayered, highly differentiated model of the human epidermis. For this study, the tissues were treated topically overnight with either test materials, 1 mM Trolox (positive control), or left untreated (negative control). On the following day, the tissues were exposed to UVB (300 mJ/cm^2). Following the exposures the DNA was extracted from the EpiDerm tissues and assayed for thymine dimer content. Samples of the DNA were immobilized on a solid membrane support and incubated with an antibody that recognizes thymidine dimers in double stranded DNA. The primary antibody was detected using a secondary antibody conjugated to an alkaline phosphatase enzyme followed by the addition of a substrate that the alkaline phosphatase enzyme uses to generate a chemiluminescent signal. The light generated by this reaction was captured using film with the intensity of the light signal being proportional to the amount of the thymine dimers present in the sample. Test material BM was Porphyridium sp. biomass that had been homogenized with a Microfluidizer® twice and then lyophilized. […] Extracted DNA was quantified via a fluorometric assay. […]

In a further assay the test system is hyaluronidase. The assay is described as follows: Anti-hyaluronidase assay (bHA-coated 96-well plate). The class given is biochemical. The note with it: 0.1%. As for the experimental part: Biotinylated hyaluronic acid (bHA) was covalently attached to the wells of a 96-well plate. Samples containing hyaluronidase and various test materials were then added to the wells. The hyaluronidase degrades the bound hyaluronic acid, resulting in a decrease in the amount of biotin covalently linked to the well plate. At the end of the incubation period the reaction was stopped and the well plate was washed to remove the hyaluronidase. The remaining bHA was detected using an avidin bound peroxidase enzyme. When an appropriate substrate is added, the peroxidase enzyme generated a color signal in proportion to the amount of bHA. The color signal was measured spectrophotometrically, and was inversely proportional to the amount of hyaluronidase activity in the sample. […] Also see Frost, G. I., Stern, R. A Microtiter-Based Assay for Hyaluronidase Activity Not Requiring Specialized Reagents. Analytical Biochemistry 251, 263-269: 1997. […]
During the 30 minute incubation, an avidin/biotin-peroxidase complex was prepared in 10.5 ml of PBS containing 0.1% Tween 20 using an ABC kit. […] The plate was incubated in the dark for 10-20 minutes and then read at 460 nm using a plate reader. The substrate solution was also added to three wells that were not treated with test materials or the avidin/biotin-peroxidase solution and were used as a blank for the absorbance measurements. […]

Take `CCCC(=O)[O-].[Na+]` [Na Butyrate, sodium butyrate]: the “Type I C-Peptide” value with Fibroblasts was determined as 1425 ± 81 ng/mL.
`CN[C@@H]1[C@H](O)[C@H](NC)[C@H]2O[C@@]3(O)C(=O)C[C@@H](C)O[C@H]3O[C@@H]2[C@H]1O` [Specinomycin]: the Growth result in assay [1] (100.0 ug/ml), in assay [1] (250.0 ug/ml) and in assay [1] (750.0 ug/ml) was “+ + + +” throughout.
Consider `Cc1c(C)c2c(c(C)c1O)CCC(C)(C(=O)O)O2` (stereo not drawn) [Trolox], for which, in assay [2], the “Optical Density (thymidine dimer)” value worked out at 107 ± 1 optical density units.
In the case of heparin, the “Percent Inhibition” value in the assay on hyaluronidase stood at 74%.
